According to US20110217300A1, “Quinazolinone Compounds and Methods of Use Thereof” (priority 2007, published 2011):
Where two headings read alike, the source gives them in different places.

How the values were obtained:
A549 = experiment: MTS cell viability assay; assay type: cell-based; conditions: Homo sapiens, A549 non small cell lung, 72 hours, read-out: MTS NCI A549 GI50
Summary of the method: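 A549 and a second human cancer line seeded in DMEM/10% FBS, allowed 16–24 h to attach, then exposed 72 h at 37 °C, 5% CO2 to serially diluted compound (final DMSO 0.33%). Viability measured by MTS.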

HsEg5 [1] = target: T1, HsEg5 (Homo sapiens, UniProt P52732); experiment: Fluorescence detection of HsEg5 ATPase activity (ADP Quest, automated); assay type: biochemical
T1 sequence (P52732 18-359 limits assumed): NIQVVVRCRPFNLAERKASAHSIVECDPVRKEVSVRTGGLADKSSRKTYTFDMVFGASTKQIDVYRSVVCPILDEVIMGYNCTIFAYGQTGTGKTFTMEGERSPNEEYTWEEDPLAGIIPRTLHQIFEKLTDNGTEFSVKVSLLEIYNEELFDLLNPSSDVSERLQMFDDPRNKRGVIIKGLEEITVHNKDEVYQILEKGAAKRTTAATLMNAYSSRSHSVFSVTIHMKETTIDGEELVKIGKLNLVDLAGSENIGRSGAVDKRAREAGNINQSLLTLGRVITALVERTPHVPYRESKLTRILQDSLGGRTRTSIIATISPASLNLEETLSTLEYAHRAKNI
Summary of the method: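 Microtubule-activated HsEg5 motor fragment (10 nM, 500 nM MTs) preincubated 10 min with compound, then 20 μM ATP for 10 min at room temperature in Pipes pH 7.0, MgCl2, paclitaxel, 0.3% DMSO. ADP detected via coupled-enzyme resorufin fluorescence; IC50 over 100 μM–5 nM.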

NCI-H460 = experiment: MTS cell viability assay; assay type: cell-based, human; conditions: Homo sapiens, NCI-H460, 72 h
Summary of the method: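 Cells in DMEM (4.5 g/L glucose) with 10% heat-inactivated FBS, 10 mM L-glutamine and 10 mM Hepes pH 7.5 at 37° C./5% CO2 were seeded at 100-5000 cells/well, then exposed to serially diluted compound (0.33% DMSO final) for 72 hours. Viability read by MTS/PMS reduction, absorbance 490 nm; GI50 reported.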

HsEg5 [2] = target: T1, HsEg5; experiment: Luminescent detection of HsEg5 ATPase activity (Kinase-Glo Plus); assay type: biochemical
Method: Purified HsEg5 motor fragment was activated by mixture with preformed MT polymer (Cytoskeleton, Denver, Colo.) at room temperature for 20 minutes. MT activated ATPase activity was measured using Kinase-Glo® Plus Luminescent Kinase Assay (Promega, Madison, Wis.).
For inhibitor screening, 5 μL of compounds were incubated with 20 μL of MT-activated HsEg5 such that the final concentrations for compound range from 100 μM to 5 nM (1 to 3 serial dilutions, final concentration) and final concentration for HsEg5 is 25 nM. The mixture was incubated at room temperature for 20 minutes with mild shaking. The screening assay contained 0.3% DMSO in all reaction wells. We used wells containing only DMSO as negative controls and wells without ATP as background. Addition of 15 μL of 13 μM ATP (final concentration of 5 μM) initiated the ATP hydrolysis reaction. The 40 μL-reaction was allowed to proceed at room temperature for 45 minutes before addition of 40 μL of Kinase®-Glo Plus. After 15-minute development at room temperature, the luminescent was measured.
Eg5 IC50 data was generated using both fluorescence and Luminescence detection assays as described above. Compounds I-69 were screened using automated fluorescence assay while compounds 70-83 were screened using Luminescence detection assay. (See reference “Zhang B, Senator D, Wilson C J, Ng S C. (2005) “Development of a high-throughput robotic fluorescence-based assay for HsEg5 inhibitor screening” Anal Biochem. 345:326-335″).

[3] = read-out: MTS NCI H460 GI50, NCI-H460 non small cell lung, 72 hours

Row | Compound | GI50 (A549) [nM] | IC50 (HsEg5 [1]) [nM] | GI50 (NCI-H460; read-out: MTS NCI H460 GI50) [nM] | GI50 (A549; A549, 72 h) [nM] | GI50 (NCI-H460; [3]) [nM] | IC50 (HsEg5 [2]) [nM]
1 | CCC(c1nc2cc(Cl)ccc2c(=O)n1Nc1ccccc1)N(CCN)C(=O)c1ccc(F)c(C)c1 (stereo not shown) [Compound 63, N-(2-Aminoethyl)-N-[1-(3-anilino-7-chloro-4-oxo-3,4-dihydroquinazolin-2-yl)propyl]-4-fluoro-3-methylbenzamide] | 7020 | 3340 | 10500 |  |  | 
2 | CCC(c1nc2cc(Cl)ccc2c(=O)n1Nc1ccccc1)N(CCCN)C(=O)c1ccc(C)c(F)c1 (stereo not shown) [Compound 16, N-(3-Aminopropyl)-N-[1-(3-anilino-7-chloro-4-oxo-3,4-dihydroquinazolin-2-yl)propyl]-3-fluoro-4-methylbenzamide] | 1360 | 1150 | 929 |  |  | 
3 | CCC(c1nc2cc(Cl)ccc2c(=O)n1Nc1ccccc1)N(CCCN)C(=O)c1ccc([N+](=O)[O-])cc1 (stereo not shown) [Compound 5, N-(3-Aminopropyl)-N-[1-(3-anilino-7-chloro-4-oxo-3,4-dihydroquinazolin-2-yl)propyl]-4-nitrobenzamide] | 4400 | 1050 | 2390 |  |  | 
4 | CCC(c1nc2cc(Cl)ccc2c(=O)n1Nc1ccccc1)N(CCN)C(=O)c1c(F)ccc(C)c1F (stereo not shown) [Compound 62, N-(2-Aminoethyl)-N-[1-(3-anilino-7-chloro-4-oxo-3,4-dihydroquinazolin-2-yl)propyl]-2,6-difluoro-3-methylbenzamide] | 21700 | 3740 | 22800 |  |  | 
5 | C#CCC(c1nc2cc(Cl)ccc2c(=O)n1Nc1ccccc1)N(CCCN)C(=O)c1cccc(Cl)c1F (stereo not shown) [Compound 57, N-(3-Aminopropyl)-N-[1-(3-anilino-7-chloro-4-oxo-3,4-dihydroquinazolin-2-yl)but-3-yn-1-yl]-3-chloro-2-fluorobenzamide] | 433 | 50.6 | 766 |  |  | 
6 | CCC(c1nc2cc(Cl)ccc2c(=O)n1Nc1ccccc1)N(CCCN)C(=O)c1ccc(I)cc1 (stereo not shown) [Compound 15, N-(3-Aminopropyl)-N-[1-(3-anilino-7-chloro-4-oxo-3,4-dihydroquinazolin-2-yl)propyl]-4-iodobenzamide] |  | 1650 |  | 3080 | 2270 | 
7 | CSCCC(c1nc2cc(Cl)ccc2c(=O)n1Nc1ccccc1)N(CCCN)C(=O)c1ccc(-n2cccn2)cc1 (stereo not shown) [Compound 40, N-(3-Aminopropyl)-N-[1-(3-anilino-7-chloro-4-oxo-3,4-dihydroquinazolin-2-yl)-3-(methylthio)propyl]-4-(1H-pyrazol-1-yl)benzamide] | 6120 | 2830 | 8350 |  |  | 
8 | CCC(c1nc2cc(Cl)ccc2c(=O)n1Nc1ccccc1F)N(CCCN)C(=O)c1ccc(C)cc1 (stereo not shown) [Compound 25, N-(3-Aminopropyl)-N-(1-{7-chloro-3-[(2-fluorophenyl)amino]-4-oxo-3,4-dihydroquinazolin-2-yl}propyl)-4-methylbenzamide] | 1520 | 1430 | 959 |  |  | 
9 | CCC(c1nc2cc(Cl)ccc2c(=O)n1Nc1cc(F)ccc1F)N(CCCN)C(=O)c1ccc(C)cc1 (stereo not shown) [Compound 26, N-(3-Aminopropyl)-N-(1-{7-chloro-3-[(2,5-difluorophenyl)amino]-4-oxo-3,4-dihydroquinazolin-2-yl}propyl)-4-methylbenzamide] | 1250 | 944 | 889 |  |  | 
10 | CCC(c1nc2cc(Cl)ccc2c(=O)n1Oc1ccccc1)N(CCCN)C(=O)c1ccc(C)cc1 (stereo not shown) [Compound 29, N-(3-Aminopropyl)-N-[1-(7-chloro-4-oxo-3-phenoxy-3,4-dihydroquinazolin-2-yl)propyl]-4-methylbenzamide] |  | 2170 |  | 3310 | 2090 | 
11 | C#CCC(c1nc2cc(Cl)ccc2c(=O)n1Nc1ccccc1)N(CCCN)C(=O)c1cc(F)c(Cl)cc1F (stereo not shown) [Compound 56, N-(3-Aminopropyl)-N-[1-(3-anilino-7-chloro-4-oxo-3,4-dihydroquinazolin-2-yl)but-3-yn-1-yl]-4-chloro-2,5-difluorobenzamide] | 3820 | 138 | 1860 |  |  | 
12 | CC(C)C(c1nc2cc(Cl)ccc2c(=O)n1Nc1ccccc1)N(CCCN)C(=O)c1cc(F)c(Cl)cc1F (stereo not shown) [Compound 45, N-(3-Aminopropyl)-N-[1-(3-anilino-7-chloro-4-oxo-3,4-dihydroquinazolin-2-yl)-2-methylpropyl]-4-chloro-2,5-difluorobenzamide] | 3240 | 743 | 3170 |  |  | 
13 | C#CC[C@H](c1nc2cc(Cl)ccc2c(=O)n1Nc1ccccc1)N(CCCN)C(=O)c1cccc(F)c1F [Compound 82, (R)—N-(3-Aminopropyl)-N-(1-(7-chloro-4-oxo-3-(phenylamino)-3,4-dihydroquinazolin-2-yl)but-3-ynyl)-2,3-difluorobenzamide] |  |  |  |  |  | 30
14 | CCC(c1nc2cc(Cl)ccc2c(=O)n1Nc1ccccc1)N(CCCN)C(=O)c1ccc(F)cc1 (stereo not shown) [Compound 8, N-(3-Aminopropyl)-N-[1-(3-anilino-7-chloro-4-oxo-3,4-dihydroquinazolin-2-yl)propyl]-4-fluorobenzamide] |  | 2130 |  | 4750 | 2830 | 
15 | CCC(c1nc2cc(Cl)ccc2c(=O)n1Nc1ccccc1)N(CCN)C(=O)c1ccc(C)c(F)c1F (stereo not shown) [Compound 65, N-(2-Aminoethyl)-N-[1-(3-anilino-7-chloro-4-oxo-3,4-dihydroquinazolin-2-yl)propyl]-2,3-difluoro-4-methylbenzamide] | 12400 | 4080 | 11400 |  |  | 
16 | NCCCN(C(=O)c1ccc(Cl)c(Cl)c1)C(Cc1ccc(O)cc1)c1nc2cc(Cl)ccc2c(=O)n1Nc1ccccc1 (stereo not shown) [Compound 54, N-(3-Aminopropyl)-N-[1-(3-anilino-7-chloro-4-oxo-3,4-dihydroquinazolin-2-yl)-2-(4-hydroxyphenyl)ethyl]-3,4-dichlorobenzamide] |  | 2410 |  | 12200 | 11900 | 
17 | NCCCN(C(=O)c1ccc(F)c(F)c1)C(Cc1cccs1)c1nc2cc(Cl)ccc2c(=O)n1Nc1ccccc1 (stereo not shown) [Compound 52, N-(3-Aminopropyl)-N-[1-(3-anilino-7-chloro-4-oxo-3,4-dihydroquinazolin-2-yl)-2-(2-thienyl)ethyl]-3,4-difluorobenzamide] |  | 1250 |  | 4290 | 3470 | 
18 | CSCCC(c1nc2cc(Cl)ccc2c(=O)n1Nc1ccccc1)N(CCCN)C(=O)c1ccc(C)c(F)c1F (stereo not shown) [Compound 39, N-(3-Aminopropyl)-N-[1-(3-anilino-7-chloro-4-oxo-3,4-dihydroquinazolin-2-yl)-3-(methylthio)propyl]-2,3-difluoro-4-methylbenzamide] | 6090 | 3010 | 4490 |  |  | 
19 | Cc1ccc(C(=O)N(CCCN)C(Cc2cccs2)c2nc3cc(Cl)ccc3c(=O)n2Nc2ccccc2)cc1 (stereo not shown) [Compound 49, N-(3-Aminopropyl)-N-[1-(3-anilino-7-chloro-4-oxo-3,4-dihydroquinazolin-2-yl)-2-(2-thienyl)ethyl]-4-methylbenzamide] |  | 3440 |  | 4690 | 4410 | 
20 | CCC(c1nc2ccc(Cl)cc2c(=O)n1Nc1ccccc1)N(CCCN)C(=O)c1ccc(C)cc1 (stereo not shown) [Compound 27, N-(3-Aminopropyl)-N-[1-(3-anilino-6-chloro-4-oxo-3,4-dihydroquinazolin-2-yl)propyl]-4-methylbenzamide] | 2220 | 1280 | 1080 |  |  | 
